According to patent publication US7211588B2, “N-substituted indolyl-3-glyoxylamides, their use as medicaments and process for their preparation” (Zentaris GmbH, priority 2003, dated 2007):
Converted amounts (≈) assume the structure as drawn.

Key:
[1] = test system: acute myeloid leukemia cell line LT12; assay: XTT proliferation test, LT12; assay type: cell-based; details: Rattus norvegicus, LT12 wild-type cells
Source text: (§1) Substance 1 was investigated for its antiproliferative action in a proliferation test using established tumor cell (D. A. Scuderio et al. Cancer Res. 1988, 48, 4827–4833). The test used determines the cellular dehydrogenase activity and permits a determination of the cell vitality and, indirectly, of the cell count. The cell lines used are the human cervical carcinoma cell line KB/HeLa (ATCC CCL17), the ovarial adeno carcinoma cell line SKOV-3 (ATCC HTB77), the human glioblastoma cell line SF-268 (NCl 503138) and the pulmonary carcinoma cell line NCl-H460 (NCl 503473). Substance 1 was further characterized by testing with regard to multidrug-resistant cell lines as compared with the nonresistant wild-type cell lines. The cell lines tested are the murine cell line L1210, the acute myeloid leukemia cell line LT12 and the resistant lines L1210/mdr and LT12/mdr. Further test systems used are the murine P388 cell line (methylcholanthrene-induced lymphoid neoplasm) and the doxorubicin-resistant P388 cell line.

[2] = test system: human glioblastoma cell line SF-268 (NCl 503138); assay: XTT proliferation/cytotoxicity test, SF-268; assay type: cell-based; details: SF-268 cells
Source text: (§2) Substance 1 was investigated for its antiproliferative action in a proliferation test using established tumor cell (D. A. Scuderio et al. Cancer Res. 1988, 48, 4827–4833). The test used determines the cellular dehydrogenase activity and permits a determination of the cell vitality and, indirectly, of the cell count. The cell lines used are the human cervical carcinoma cell line KB/HeLa (ATCC CCL17), the ovarial adeno carcinoma cell line SKOV-3 (ATCC HTB77), the human glioblastoma cell line SF-268 (NCl 503138) and the pulmonary carcinoma cell line NCl-H460 (NCl 503473).

resistant line LT12/mdr = assay: XTT proliferation test, LT12mdr; assay type: cell-based; details: Rattus norvegicus, multidrug-resistant LT12mdr cells
Source text: as §1

[3] = test system: resistant line L1210/mdr (L1210VCR); assay: XTT proliferation test, L1210VCR; assay type: cell-based, murine; details: Mus musculus, resistant L1210VCR cells
Source text: as §1

[4] = test system: ovarial adeno carcinoma cell line SKOV-3 (ATCC HTB77); assay: XTT proliferation/cytotoxicity test, SK-OV-3; assay type: cell-based; details: Homo sapiens, SK-OV-3 cells
Source text: as §2

[5] = test system: murine P388 cell line (methylcholanthrene-induced lymphoid neoplasm); assay: XTT proliferation test, P388; assay type: cell-based; details: Mus musculus, P388 wild-type cells
Source text: as §1

[6] = test system: doxorubicin-resistant P388 cell line; assay: XTT proliferation test, P388ADR; assay type: cell-based, murine; details: Mus musculus, doxorubicin-resistant P388ADR cells
Source text: as §1

[7] = test system: pulmonary carcinoma cell line NCl-H460 (NCl 503473); assay: XTT proliferation/cytotoxicity test, NCI-H460; assay type: cell-based; details: Homo sapiens, NCI-H460 cells
Source text: as §2

[8] = test system: human cervical carcinoma cell line KB/HeLa (ATCC CCL17); assay: XTT proliferation/cytotoxicity test, KB/HeLa; assay type: cell-based; details: KB/HeLa cells
Source text: as §2

murine cell line L1210 = assay: XTT proliferation test, L1210; assay type: cell-based; details: Mus musculus, L1210 wild-type cells
Source text: as §1

Which results are given for `O=C(C(=O)N(C(=O)c1ccccc1)c1ccc2ncccc2c1)c1cn(Cc2ccc(Cl)cc2)c2ccccc12` [Compound 1, N-{2-[1-(4-Chlorobenzyl)-1H-indol-3-yl]-2-oxoacetyl}-N-quinolin-6-ylbenzamide]?
melting point: 213 °C; IC50 [1]: 0.226 µg/mL (≈ 0.415 µM); IC50 [2]: 0.261 µg/mL (≈ 0.48 µM); IC50 (resistant line LT12/mdr): 0.277 µg/mL (≈ 0.509 µM); IC50 [3]: 0.577 µg/mL (≈ 1.06 µM); IC50 [4]: 0.139 µg/mL (≈ 0.256 µM); IC50 [5]: 0.219 µg/mL (≈ 0.403 µM); IC50 [6]: 0.252 µg/mL (≈ 0.463 µM); IC50 [7]: 0.222 µg/mL (≈ 0.408 µM); IC50 [8]: 0.17 µg/mL (≈ 0.312 µM); IC50 (murine cell line L1210): 0.255 µg/mL (≈ 0.469 µM)
